Source: ChEMBL document CHEMBL4811220, “Investigation of the in vitro and in vivo efficacy of peptoid-based HDAC inhibitors with dual-stage antiplasmodial activity” (Eur J Med Chem, 2021)
Activity calls are given as the source filed them. No cut-off for these calls is given here.

Columns and labels:
[1] = Selectivity index, ratio of IC50 for cytotoxicity against human HepG2-A16-CD81EGFP cells to IC50 for antiplasmodial activity against drug-sensitive asexual intraerythrocytic stage of Plasmodium falciparum 3D7 infected in human O+ erythrocytes
Histone deacetylase 1 = Histone deacetylase 1 (Homo sapiens, UniProt Q13547)
Histone deacetylase 1, sequence (Q13547 whole entry): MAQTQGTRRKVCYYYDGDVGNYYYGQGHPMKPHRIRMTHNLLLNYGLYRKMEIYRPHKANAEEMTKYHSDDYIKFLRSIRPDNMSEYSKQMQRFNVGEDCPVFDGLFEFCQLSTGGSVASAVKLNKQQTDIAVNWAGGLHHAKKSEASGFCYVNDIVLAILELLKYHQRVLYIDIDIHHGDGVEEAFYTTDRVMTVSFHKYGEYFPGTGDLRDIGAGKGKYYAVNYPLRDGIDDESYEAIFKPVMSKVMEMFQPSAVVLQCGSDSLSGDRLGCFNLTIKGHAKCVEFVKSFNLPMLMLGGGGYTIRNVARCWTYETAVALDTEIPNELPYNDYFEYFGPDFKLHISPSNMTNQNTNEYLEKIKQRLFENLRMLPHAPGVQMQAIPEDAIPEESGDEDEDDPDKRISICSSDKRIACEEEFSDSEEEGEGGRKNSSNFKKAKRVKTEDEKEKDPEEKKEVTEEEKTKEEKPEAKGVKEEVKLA
Description: Inhibition of C-terminal FLAG/His-tagged human recombinant HDAC1 (1 to 482 residues) expressed in baculovirus infected Sf9 cells using ZMAL (Z-Lys(Ac)-AMC) as fluorogenic substrate incubated for 90 mins by fluorescence based assay

[2] = Selective index, ratio of IC50 for human HepG2-A16-CD81EGFP cells to IC50 for antiplasmodial activity against liver stage exo-erythrocytic forms of Plasmodium berghei sporozoites infected in human HepG2-A16-CD81EGFP cells
HepG2 = assay: Cytotoxicity against human HepG2-A16-CD81EGFP cells assessed as inhibition of cell growth incubated for 24 hrs followed by medium transfer and incubation in multimode plate for 48 hrs by CellTiterGlo reagent based luminescence assay
Plasmodium berghei [3] = assay: microbe, parasite or virus in culture; format: functional, organism-based
Plasmodium falciparum [4] = assay: microbe, parasite or virus in culture; format: functional, organism-based; settings: 3D7, Erythrocyte
[5] = target: T1, Protein deacetylase HDAC6 (Homo sapiens, UniProt Q9UBN7); assay: biochemical
T1 sequence (Q9UBN7 whole entry): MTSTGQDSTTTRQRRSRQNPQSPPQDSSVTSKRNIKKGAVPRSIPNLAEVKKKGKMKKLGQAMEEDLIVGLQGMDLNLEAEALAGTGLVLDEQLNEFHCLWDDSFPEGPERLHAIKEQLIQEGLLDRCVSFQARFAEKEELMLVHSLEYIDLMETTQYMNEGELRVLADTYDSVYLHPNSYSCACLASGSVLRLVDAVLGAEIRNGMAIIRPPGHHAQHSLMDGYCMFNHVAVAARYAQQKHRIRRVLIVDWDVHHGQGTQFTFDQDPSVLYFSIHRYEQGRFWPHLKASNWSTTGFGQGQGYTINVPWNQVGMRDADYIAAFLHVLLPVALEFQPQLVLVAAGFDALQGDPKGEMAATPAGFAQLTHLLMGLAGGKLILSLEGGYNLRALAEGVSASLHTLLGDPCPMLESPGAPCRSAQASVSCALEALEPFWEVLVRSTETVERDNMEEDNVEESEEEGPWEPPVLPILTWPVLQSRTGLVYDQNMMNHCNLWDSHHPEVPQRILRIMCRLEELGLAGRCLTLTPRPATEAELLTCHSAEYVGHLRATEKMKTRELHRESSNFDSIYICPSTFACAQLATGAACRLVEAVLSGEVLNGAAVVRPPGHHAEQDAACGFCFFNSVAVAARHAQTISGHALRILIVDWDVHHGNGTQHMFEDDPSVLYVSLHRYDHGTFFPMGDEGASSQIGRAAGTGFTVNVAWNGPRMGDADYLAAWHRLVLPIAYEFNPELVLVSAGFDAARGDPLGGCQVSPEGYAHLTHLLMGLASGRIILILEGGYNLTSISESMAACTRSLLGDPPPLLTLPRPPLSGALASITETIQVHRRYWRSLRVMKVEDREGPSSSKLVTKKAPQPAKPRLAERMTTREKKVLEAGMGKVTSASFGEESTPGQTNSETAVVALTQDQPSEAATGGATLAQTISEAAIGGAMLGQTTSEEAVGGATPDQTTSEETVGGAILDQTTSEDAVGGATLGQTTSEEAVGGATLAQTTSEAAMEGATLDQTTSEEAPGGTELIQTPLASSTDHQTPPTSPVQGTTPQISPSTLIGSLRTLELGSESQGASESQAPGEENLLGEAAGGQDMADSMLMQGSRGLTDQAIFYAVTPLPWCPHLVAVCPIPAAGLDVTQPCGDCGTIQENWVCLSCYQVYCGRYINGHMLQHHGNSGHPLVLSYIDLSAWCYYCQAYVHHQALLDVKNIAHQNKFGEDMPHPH
Description: Inhibition of N-terminal GST-tagged full length human recombinant HDAC6 expressed in baculovirus infected Sf9 cells using ZMAL (Z-Lys(Ac)-AMC) fluorogenic substrate incubated for 90 mins by fluorescence based assay

[6] = Intrinsic clearance in human liver microsomes measured upto 40 mins by LC-MS/MS analysis; format: ADME, Microsome; settings: read-out: CLH
[7] = Half life in human liver microsomes measured upto 40 mins by LC-MS/MS analysis; format: ADME, Microsome
[8] = Half life in mouse liver microsomes measured upto 40 mins by LC-MS/MS analysis
[9] = Intrinsic clearance in mouse liver microsomes measured upto 40 mins by LC-MS/MS analysis
Plasmodium falciparum [10] = assay: Antiplasmodial activity against multidrug-resistant asexual intraerythrocytic stage of Plasmodium falciparum Dd2 assessed as inhibition of parasite growth incubated for 48 hrs followed by addition of [3H]hypoxanthine for 24 hrs by [3H]hypoxanthine incorporation assay; format: functional, organism-based
[11] = tested on: Plasmodium falciparum 3D7; assay: Inhibition of HDAC in trophozite-stage of Plasmodium falciparum 3D7 infected in erythrocytes assessed as hyperacetylation of histone H4 at lysine residue at 5 x IC50 incubated for 3 hrs by western blot analysis; format: cell-based
Plasmodium berghei [12] = assay: Antimalarial activity against Plasmodium berghei QIMR infected in BALB/c mouse assessed as reduction in peripheral blood parasitemia at 25 mg/kg, po bid for 4 days starting from 2 hrs post infection and measured on 4 to 6 days post-infection by Giemsa staining based microscopic analysis relative to control; format: functional; settings: time 4-6 day
Plasmodium falciparum [13] = assay: Resistance index, ratio of IC50 for antiplasmodial activity against multidrug-resistant asexual intraerythrocytic stage of Plasmodium falciparum Dd2 to IC50 for antiplasmodial activity against drug-sensitive asexual intraerythrocytic stage of Plasmodium falciparum 3D7 infected in human O+ erythrocytes by [3H]-hypoxanthine incorporation assay; format: functional

Compound | selectivity ratio [1] | IC50 (Histone deacetylase 1) [nM] | selectivity ratio [2] | IC50 (HepG2) [nM] | IC50 (Plasmodium berghei [3]) [nM] | IC50 (Plasmodium falciparum [4]) [nM] | IC50 [5] [nM] | microsomal CLint [6] [µL/min/mg] | half-life [7] [min] | half-life at 40 min ([8]; liver microsomes) [min] | microsomal CLint at 40 min [9] [µL/min/mg] | IC50 (Plasmodium falciparum [10]) [nM] | inhibition [11] | inhibition in vivo at 25 mg/kg (Plasmodium berghei [12]) [%] | Ratio IC50 (Plasmodium falciparum [13]) | half-life at 40 min ([8]; microsomes) [min]
O=C(CN(Cc1ccc(C(=O)NO)cc1)C(=O)Cc1ccccc1)NCc1ccccc1 | 103 | 600 | 24 | 21900 | 920 | 213 | 30 | – | – | – | – | – | – | – | – | –
CC(C)c1ccc(CC(=O)N(CC(=O)NC2CCCCC2)Cc2ccc(C(=O)NO)cc2)cc1 | 117 | 2030 | 12 | 25100 | 2020 | 215 | 40 | – | – | – | – | – | – | – | – | –
CN(C)c1ccc(C(=O)N(Cc2ccc(C(=O)NO)cc2)C(C)(C)C(=O)NCc2ccccc2)cc1 | > 311 | 440 | > 12 | > 50000 | 4270 | 161 | 70 | – | – | – | – | – | – | – | – | –
Cc1cc(C)cc(C(=O)N(CC(=O)N2CCCCC2)Cc2ccc(C(=O)NO)cc2)c1 | 69 | 4050 | 5 | 35000 | 6560 | 509 | 130 | – | – | – | – | – | – | – | – | –
O=C(CCCCCCC(=O)Nc1ccccc1)NO [VORINOSTAT] | – | – | – | 7600 | – | – | – | – | – | – | – | – | – | – | – | –
Cn1c(=O)c2c(ncn2C)n(C)c1=O [CAFFEINE] | – | – | – | – | – | – | – | 2 | 1030 | – | – | – | – | – | – | –
Cc1ccccc1C(=O)N(CC(=O)NC12CC3CC(CC(C3)C1)C2)Cc1ccc(C(=O)NO)cc1 | 102 | 100 | 24 | 13000 | 540 | 127 | 30 | – | – | – | – | – | – | – | – | –
CC(C)c1ccc(NC(=O)CN(Cc2ccc(C(=O)NO)cc2)C(=O)Cc2ccccc2)cc1 | – | – | – | – | – | – | – | 72 | 23.5 | 44.3 | 38 | – | – | – | – | –
Cc1cc(C)cc(C(=O)N(CC(=O)N(C)C)Cc2ccc(C(=O)NO)cc2)c1 | > 48 | 8000 | – | > 50000 | 8250 | 1040 | 230 | – | – | – | – | – | – | – | – | –
O=C(CN(Cc1ccc(C(=O)NO)cc1)C(=O)c1cccc2ccccc12)NCc1ccccc1 | 376 | 130 | 20 | 12800 | 630 | 34 | 10 | 41 | 41.4 | 19.3 | 87 | 14 | Active | 25.9 | 0.4 | –
CC(C)c1ccc(C(=O)N(CC(=O)NC23CC4CC(CC(C4)C2)C3)Cc2ccc(C(=O)NO)cc2)cc1 | 154 | 300 | 13 | 4320 | 340 | 28 | 250 | – | – | – | – | 6 | – | – | 0.2 | –
CC(C)NCC(O)COc1cccc2ccccc12 (centres undefined) [PROPRANOLOL] | – | – | – | – | – | – | – | – | – | – | – | – | – | – | – | 54.3
CC(C)c1ccc(C(=O)N(Cc2ccc(C(=O)NO)cc2)C(C)(C)C(=O)NC2CCCCC2)cc1 | > 495 | 970 | > 10 | > 50000 | 4900 | 101 | 270 | 144 | 11.7 | 55.6 | 30 | 33 | inactive | 0.5 | 0.3 | –
O=C(CN(Cc1ccc(C(=O)NO)cc1)C(=O)Cc1ccccc1)NC1CCCCC1 | > 178 | 2430 | > 61 | > 50000 | 820 | 281 | 50 | – | – | – | – | – | – | – | – | –
Cc1ccc(C(=O)N(CC(=O)NC2CCCCC2)Cc2ccc(C(=O)NO)cc2)c(C)c1 | 1040 | 260 | 139 | 8330 | 60 | 8 | 40 | 139 | 12.2 | 17.9 | 94 | 4 | inactive | 31 | 0.5 | –
CC(C)c1ccc(C(=O)N(Cc2ccc(C(=O)NO)cc2)C(C)(C)C(=O)NCc2ccccc2)cc1 | > 352 | 280 | > 6 | > 50000 | 8670 | 142 | 60 | – | – | – | – | – | – | – | – | –
O=C(O)Cc1ccccc1Nc1c(Cl)cccc1Cl [DICLOFENAC] | – | – | – | – | – | – | – | 248 | 6.8 | – | – | – | – | – | – | –
CC(C)c1ccc(CC(=O)N(CC(=O)NCc2ccccc2)Cc2ccc(C(=O)NO)cc2)cc1 | 395 | 780 | 11 | 30000 | 2700 | 76 | 20 | – | – | – | – | 23 | Active | – | 0.3 | –
